Data published in patent US20130309337A1, “PROCESS FOR THE PREPARATION OF PLANT EXTRACTS FOR TREATING SKIN DISORDERS AND ENHANCING HEALING OF WOUNDS” (DEVELOPMENT CENTER FOR BIOTECHNOLOGY, priority 2007, published 2013).

Tested on: STZ-induced diabetic rats
Test: Wound closure in STZ-induced diabetic rats (full-thickness dorsal excision wounds, topical application twice a day)
Assay type: in vivo, rat
Settings: Example 6, Table 1
Protocol: Rats with a body weight of over 300 g were administered with Streptozotocin (STZ, 65 mg/kg, i.p.) to induce high blood sugar.
• i. The high-blood-sugar animals with a body weight of lower than 300 g were eliminated and the rest were randomized into 6 groups. • ii. The animals were anesthetized with pentobarbital and the hair on the surgical area (dorsal area) was removed. The surgical areas and instruments were then sterilized with 75% alcohol before operation. • iii. The skins on the dorsal medium areas (4, 6 and 8 cm from the midpoint of two scapula) were excised (full thickness) using a round cutting blade with a diameter of 1 cm. Measuring the Wounds, Applying Testing Materials, and Preventing the Wounds from Being Scratched • i. A standard ruler was placed beside the wounds and pictures were taken. • ii. A thin layer of the test materials formulated as ointments and 0.05 ml of CGS21680 solution were applied to each wound. • iii. The wounds were covered with gauze and hoods were worn on the rats' necks.
Test materials were applied to the rats twice a day (morning and evening) and the wounds were measured at each time point.
A standard ruler was placed beside the wounds when pictures were taken. The length of the wounds was standardized according to the scale of the standard ruler in the pictures before the wounds were analyzed with the image processing software Image-Pro (Media Cybernetics, Inc.) to avoid the errors caused by different picturing distances.
The areas of the three wounds on the rats' backs were analyzed by Image-Pro. The wound areas of day zero were the original wound areas. The original wound areas minus the wound areas at different time points were divided by the original wound areas to get the wound closure percentages. The mean of the three wound closure percentages of each rat represents the wound closure of each rat. Four to seven rats per group were used for each test materials. The data was shown as mean±standard error (SEM). The p-values of the test results were calculated by t-test in statistics software sigma statis (Systat software Inc.). P<0.05 means there is a significant difference, and it is marked with * on the statistics charts or tables. P<0.01 means there is a very significant difference, and it is marked with ** on the statistics charts or tables. P<0.001 means there is an extremely significant difference, and it is marked with *** on the statistics charts or tables.
The purpose of this example is to compare the efficacy of the composition of the present invention and that of the commercially available products on wound closures. The wound closure animal experiments were conducted according to Example 5. On day 0, 4, 6, 8, 10 and 12 after the treatments of placebo (Group 1), 1% S1 ointment (Group 2), CGS-21680 (Group 3), Regranex (Group 4), DCB-WH1-C (Group 5) and DCB-WH1-W (Group 6), the wound areas of all experimental groups were measured and the wound closure percentages and CT50 (time required for 50% wound closure) values were calculated.
The purpose of this example is to compare the efficacy of DCB-WH1-W with that of its active ingredients in wound closures. The test materials are placebo (Group 1), 1% S1 ointment (Group 2), 0.25% PA-W4 ointment (Group 3), DCB-WH1-W (Group 4) and 1% PA-W4 ointment (Group 5). The wound closure animal experiments were conducted according to Example 5. On day 0, 4, 9, 11 and 13 after the treatment with the test materials, the wound areas of all experimental groups were measured and the wound closure percentages and CT50 were calculated.

Compound: CCNC(=O)[C@H]1O[C@@H](n2cnc3c(N)nc(NCCc4ccc(CCC(=O)O)cc4)nc32)[C@H](O)[C@@H]1O [CGS-2168, CGS-21680]
- CT50 (time required for 50% wound closure): 10.3 days
- Wound closure percentage (%) Day 4 (day 4 after treatment, mean ± SEM, topical twice a day): −21.3 ± 4.8%
- Wound closure percentage (%) Day 6 (day 6, mean ± SEM): −27.38 ± 3.2%
- Wound closure percentage (%) Day 8 (day 8, mean ± SEM): −2.4 ± 4.1%
- Wound closure percentage (%) Day 10 (day 10, mean ± SEM): 46.7 ± 6.0%
- Wound closure percentage (%) DAY 12 (day 12, mean ± SEM): 71.7 ± 2.4%
